Test systems include CAKI-1 renal; HL-60(TB) leukemia; IGROV1 ovarian; K-562 leukemia; MDA-N; OVCAR-3 ovarian; OVCAR-4 ovarian; OVCAR-8 ovarian; SK-MEL-28 melanoma; SNB-78 CNS.
Test in all cases: NCI anticancer screen, dose series, 48 h

Where “and” joins values, the source holds several entries; their conditions need not be identical. Equal entries are not always repeated.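 Cultured in 96-well plates, cells were exposed to test compound for 48 hours across five concentrations. GI50 marks 50% less growth. At the TGI there is no net growth.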

Turning to `O=C1NC(N/N=C\C(O)C(O)C(O)CO)=N/C1=C/c1ccccc1` (stereo not given), the TGI in the test on CAKI-1 renal, in the test with HL-60(TB) leukemia, in the test with IGROV1 ovarian, in the test with K-562 leukemia, with MDA-N and with OVCAR-3 ovarian was more than 100 µM each time. Moreover, the TGI in the test on OVCAR-4 ovarian is > 100 µM and 79.8 µM; with OVCAR-8 ovarian, more than 100 µM; in the test on SK-MEL-28 melanoma, more than 100 µM. The GI50 in the test with HL-60(TB) leukemia was > 100 µM and 41.2 µM; in the test with IGROV1 ovarian, > 100 µM and 43.3 µM; with K-562 leukemia, > 100 µM and 22.7 µM; in the test with OVCAR-3 ovarian it was > 100 µM and 47.6 µM; with OVCAR-4 ovarian, 84.1 µM and 23.4 µM; in the test with SK-MEL-28 melanoma it was > 100 µM and 25.6 µM.
For the molecule `COC(=O)[C@H](Cc1ccccc1)NC(=O)c1ccc(CNC(=O)/C=C/c2ccc(-c3ccccc3)cc2)cc1`, the TGI with CAKI-1 renal, in the test with HL-60(TB) leukemia, with IGROV1 ovarian, in the test with K-562 leukemia, with MDA-N and in the test with OVCAR-3 ovarian was more than 100 µM throughout. The TGI in the test on OVCAR-4 ovarian, in the test on OVCAR-8 ovarian and in the test on SK-MEL-28 melanoma was more than 100 µM in each case.
Turning to `Cn1cnc([N+](=O)[O-])c1Sc1nc2cc(Cl)c(F)cc2[nH]1`, the TGI in the test with CAKI-1 renal stood at 14.4 µM; in the test with IGROV1 ovarian it was 35.8 µM; with OVCAR-4 ovarian, 21 µM; in the test with OVCAR-8 ovarian it was 23.2 µM; in the test on SK-MEL-28 melanoma, 27.3 µM; in the test with SNB-78 CNS it was 25.9 µM.
Take `OCC1OC(c2scc3c(=S)nc[nH]c23)C(O)C1O` (stereo not given): the TGI was 63.3 µM with CAKI-1 renal; 21.4 µM in the test with HL-60(TB) leukemia; 46.5 µM in the test with IGROV1 ovarian; more than 100 µM in the test on K-562 leukemia; more than 100 µM in the test on MDA-N; 8.33 µM in the test with OVCAR-3 ovarian. The values for the TGI with OVCAR-4 ovarian, in the test with OVCAR-8 ovarian and with SK-MEL-28 melanoma were 38.1 µM, 39.6 µM and more than 100 µM, respectively.
As for `C=CCC1(O)c2ccccc2C(=O)c2c(O)ccc(O)c21` (stereo not given), the TGI with CAKI-1 renal was 50.7 µM; in the test on HL-60(TB) leukemia, 13 µM; in the test on IGROV1 ovarian it was more than 100 µM; in the test on K-562 leukemia it was more than 100 µM; in the test on MDA-N, 5.15 µM; in the test on OVCAR-3 ovarian, more than 57.6 µM. Also, the results for the TGI in the test with OVCAR-4 ovarian, in the test on OVCAR-8 ovarian and with SK-MEL-28 melanoma were more than 82.5 µM, 53.7 µM and more than 100 µM, respectively.
For the molecule `CCOC(=O)c1cccc(NC(=O)CCl)c1`, the TGI in the test with CAKI-1 renal is 3.42 µM; in the test on HL-60(TB) leukemia, 13.2 µM; with IGROV1 ovarian, 8.11 µM; in the test with K-562 leukemia, 29 µM; in the test with MDA-N it was 14.7 µM; in the test with OVCAR-3 ovarian, 4.44 µM. Further, the TGI with OVCAR-4 ovarian is 8.31 µM; in the test with OVCAR-8 ovarian, more than 30.1 µM; in the test with SK-MEL-28 melanoma it was 49.7 µM.
Consider `COc1c2cc([N+](=O)[O-])cc1CNC(=O)CN1CCOCCOCCN(CCOCCOCC1)CC(=O)NC2`, for which the TGI in the test on CAKI-1 renal, in the test on HL-60(TB) leukemia, with IGROV1 ovarian, with K-562 leukemia, in the test on MDA-N and in the test on OVCAR-3 ovarian was more than 100 µM each time. Besides, the TGI in the test on OVCAR-4 ovarian, in the test on OVCAR-8 ovarian and in the test with SK-MEL-28 melanoma was more than 100 µM throughout.
For `C=C(C)C(=O)CC[C@@H](C)[C@H]1[C@@H](OC2OC(CO)C(O)C(O)C2O)C[C@@]2(C)[C@@H]3C[C@H](O)C4C(C)(C)[C@@H](OC5OC(CO)C(O)C(O)C5O)CC[C@@]45C[C@@]35CC[C@]12C` (stereo not given in full), the TGI with CAKI-1 renal is more than 100 µM; with HL-60(TB) leukemia it was more than 100 µM; in the test on IGROV1 ovarian it was more than 100 µM; in the test with K-562 leukemia, more than 100 µM; in the test on MDA-N, 55.6 µM; in the test with OVCAR-3 ovarian, more than 100 µM. Also, the TGI with OVCAR-4 ovarian, with OVCAR-8 ovarian and with SK-MEL-28 melanoma was more than 100 µM in each case.
Turning to `Cc1ccc(S(=O)(=O)c2scc(-c3ccccc3)c2C)cc1`, the TGI in the test on CAKI-1 renal, with HL-60(TB) leukemia, in the test on IGROV1 ovarian, in the test on K-562 leukemia, in the test on MDA-N and in the test with OVCAR-3 ovarian was more than 100 µM in each case. The TGI with OVCAR-4 ovarian, with OVCAR-8 ovarian and in the test with SK-MEL-28 melanoma was more than 100 µM in each case.
As for `CCOc1cc2c(cc1O)/C(=N\N)C[C@@H]1[C@@H]2CC[C@]2(C)[C@@H](O)CC[C@@H]12`, the TGI in the test on CAKI-1 renal was 40.6 µM; with HL-60(TB) leukemia, more than 61.9 µM; in the test with IGROV1 ovarian, 39.2 µM; in the test on K-562 leukemia, more than 100 µM; with MDA-N it was 4.53 µM; with OVCAR-3 ovarian it was 12.4 µM. The TGI was more than 100 µM in the test with OVCAR-4 ovarian, more than 42.9 µM in the test on OVCAR-8 ovarian and 34.2 µM in the test with SK-MEL-28 melanoma.
For the molecule `O=C(CSc1nnc(-c2ccc(N=Cc3ccc(Cl)cc3)cc2)o1)Nc1ccccc1Cl`, the TGI with HL-60(TB) leukemia, in the test with K-562 leukemia, in the test with OVCAR-4 ovarian, in the test with OVCAR-8 ovarian, in the test on SK-MEL-28 melanoma and in the test with SNB-78 CNS was more than 100 µM throughout.
`CC[C@@]1(O)C(=O)OCc2c1cc1n(c2=O)Cc2c-1nc1ccccc1c2/C=N\NC(=O)C(N)CC(C)C` (stereo not given in full): the TGI with CAKI-1 renal is 0.181 µM; in the test with HL-60(TB) leukemia, more than 100 µM; in the test on IGROV1 ovarian it was more than 22 µM; in the test on K-562 leukemia, more than 100 µM; in the test on MDA-N it was more than 100 µM; in the test with OVCAR-3 ovarian it was 2.3 µM. Also, the values for the TGI with OVCAR-4 ovarian, in the test with OVCAR-8 ovarian and in the test with SK-MEL-28 melanoma were more than 100 µM, 1.44 µM and more than 100 µM, respectively.
`COc1cc(/C=C/C(=O)OCC23CC[C@@]4(C(=O)O)CCC(C)[C@H](C)C4C2=CCC2[C@@]4(C)CC[C@H](O)C(C)(C)C4CC[C@]23C)ccc1O` (stereo not given in full): the TGI with CAKI-1 renal is more than 100 µM; with HL-60(TB) leukemia, 51.1 µM; in the test with IGROV1 ovarian, 57.2 µM; in the test on K-562 leukemia, more than 100 µM; with MDA-N it was 60.7 µM; with OVCAR-3 ovarian, 14.3 µM. Further, the TGI with OVCAR-4 ovarian amounted to 46.9 µM; in the test with OVCAR-8 ovarian, 35.7 µM; in the test with SK-MEL-28 melanoma it was 85.9 µM.
In the case of `CN1C/C(=C\c2cccs2)C2=NC(=S)NC(c3cccs3)C2C1` (stereo not given), the TGI with CAKI-1 renal is more than 100 µM; in the test with HL-60(TB) leukemia it was 19.1 µM; with IGROV1 ovarian, more than 100 µM; with K-562 leukemia, more than 100 µM; with MDA-N, more than 100 µM; in the test with OVCAR-3 ovarian, more than 100 µM. The TGI in the test on OVCAR-4 ovarian, in the test with OVCAR-8 ovarian and with SK-MEL-28 melanoma was more than 100 µM throughout.
Take `c1ccc(C2=NC3(CCCCC3)N(c3nc4ccccc4s3)N2)nc1`: the TGI was 91.5 µM in the test with CAKI-1 renal; 80.3 µM in the test with HL-60(TB) leukemia; more than 100 µM in the test on IGROV1 ovarian; more than 100 µM in the test with K-562 leukemia; 86.5 µM with MDA-N; 51.2 µM in the test with OVCAR-3 ovarian. Also, the TGI with OVCAR-4 ovarian, in the test with OVCAR-8 ovarian and with SK-MEL-28 melanoma was more than 100 µM each time.
